The assay addresses T1, human RIPK1 (1-375) (Homo sapiens, UniProt Q13546).
T1 construct: human RIPK1 (1-375) gene; GST; made in house; host or cells: Sf-9 insect cells
T1 sequence (Q13546 1-375): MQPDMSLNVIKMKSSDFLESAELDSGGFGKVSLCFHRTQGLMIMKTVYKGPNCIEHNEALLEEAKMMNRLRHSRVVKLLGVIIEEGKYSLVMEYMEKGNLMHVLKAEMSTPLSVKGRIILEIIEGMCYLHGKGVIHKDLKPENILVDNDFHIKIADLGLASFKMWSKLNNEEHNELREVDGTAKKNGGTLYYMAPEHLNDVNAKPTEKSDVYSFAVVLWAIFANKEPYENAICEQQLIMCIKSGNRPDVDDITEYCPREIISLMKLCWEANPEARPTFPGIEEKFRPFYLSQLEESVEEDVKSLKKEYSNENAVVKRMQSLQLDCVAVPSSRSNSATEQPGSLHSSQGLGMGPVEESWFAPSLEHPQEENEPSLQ
In words: Human RIPK1 enzyme inhibitory effect (ADP-Glo Kinase Assay). The assay is classed as biochemical. The settings on record: well without enzyme = 100% inhibition; for inhibition at 10 µM: read-out: human RIPK1 enzyme inhibitory effect at 10 μM (% inhibition), 10 μM test compound; for human RIPK1 enzyme inhibitory effect at 10 μM (% inhibition): 10 μM test compound. Put shortly: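 Human RIPK1 (1-375), GST-purified from Sf-9 cells, preincubated 20 min at room temperature with compound in 25 mM HEPES pH 7.5, 10 mM MgCl2, 0.01% Tween-20, 2 mM DTT. Reaction started with 0.6 mM ATP solution (stock), run 120 min at room temperature. ADP measured by ADP-Glo luminescence.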

The results in this text go back to patent publication US10787462B2, “Heterocyclic compound” (TAKEDA PHARMACEUTICAL COMPANY LIMITED, priority 2015, dated 2020).

As for `Cc1c2c(nn1Cc1ccccc1)C(=O)N([C@H]1COc3ccc(C#N)cc3N(C)C1=O)CC2` [Example 85, (3S)-3-(2-benzyl-3-methyl-7-oxo-2,4,5,7-tetrahydro-6H-pyrazolo[3,4-c]pyridin-6-yl)-5-methyl-4-oxo-2,3,4,5-tetrahydro-1,5-benzoxazepine-7-carbonitrile], the inhibition (as a rule, the change of the read-out against control, counted positive when it falls) at 10 µM is 101%.
For the compound `Cc1c2c(nn1Cc1ccccc1)C(=O)N([C@H]1COc3cc(C#N)ccc3N(C)C1=O)CC2` [Example 86], the inhibition at 10 µM amounted to 100%.
In the case of `CN(C)C(=O)c1ccc2c(c1)OC[C@H](N1CCc3c(nn(Cc4ccccc4)c3Cl)C1=O)C(=O)N2C` [Example 87, (3S)-3-(2-benzyl-3-chloro-7-oxo-2,4,5,7-tetrahydro-6H-pyrazolo[3,4-c]pyridin-6-yl)-N,N,5-trimethyl-4-oxo-2,3,4,5-tetrahydro-1,5-benzoxazepine-8-carboxamide], the inhibition at 10 µM was 100%.
`Cc1c2c(nn1Cc1ccccc1)C(=O)N([C@H]1COc3cc(C(N)=O)ccc3N(C)C1=O)CC2` [Example 88, (3S)-3-(2-benzyl-3-methyl-7-oxo-2,4,5,7-tetrahydro-6H-pyrazolo[3,4-c]pyridin-6-yl)-5-methyl-4-oxo-2,3,4,5-tetrahydro-1,5-benzoxazepine-8-carboxamide]: the inhibition at 10 µM came out at 101%.
With `CNC(=O)c1ccc2c(c1)N(C)C(=O)[C@@H](N1CCc3c(nn(Cc4ccccc4)c3Cl)C1=O)CO2` [Example 89, (3S)-3-(2-benzyl-3-chloro-7-oxo-2,4,5,7-tetrahydro-6H-pyrazolo[3,4-c]pyridin-6-yl)-N,5-dimethyl-4-oxo-2,3,4,5-tetrahydro-1,5-benzoxazepine-7-carboxamide], the inhibition at 10 µM is 101%.
For `CN(C)C(=O)c1ccc2c(c1)N(C)C(=O)[C@@H](N1CCc3c(nn(Cc4ccccc4)c3Cl)C1=O)CO2` [Example 90, (3S)-3-(2-benzyl-3-chloro-7-oxo-2,4,5,7-tetrahydro-6H-pyrazolo[3,4-c]pyridin-6-yl)-N,N,5-trimethyl-4-oxo-2,3,4,5-tetrahydro-1,5-benzoxazepine-7-carboxamide], the inhibition at 10 µM was 101%.
In the case of `CN1C(=O)C(N2CCc3c(nn(Cc4ccccc4)c3Cl)C2=O)CCc2cccnc21` (centres unmarked) [Example 91, 7-(2-benzyl-3-chloro-7-oxo-2,4,5,7-tetrahydro-6H-pyrazolo[3,4-c]pyridin-6-yl)-9-methyl-5,6,7,9-tetrahydro-8H-pyrido[2,3-b]azepin-8-one], the “human RIPK1 enzyme inhibitory effect at 10 μM (% inhibition)” value was 100%.
`CN1C(=O)C(N2CCc3c(nn(Cc4ccccc4)c3Cl)C2=O)CCc2nn(C)cc21` (centres unmarked) [Example 92, 6-(2-benzyl-3-chloro-7-oxo-2,4,5,7-tetrahydro-6H-pyrazolo[3,4-c]pyridin-6-yl)-2,4-dimethyl-2,6,7,8-tetrahydropyrazolo[4,3-b]azepin-5(4H)-one]: the inhibition at 10 µM is 98%.
In the case of `CN1C(=O)C(N2CCc3c(nn(Cc4ccccc4)c3Cl)C2=O)CCc2cccnc21` (centres unmarked) [Example 93, 7-(2-benzyl-3-chloro-7-oxo-2,4,5,7-tetrahydro-6H-pyrazolo[3,4-c]pyridin-6-yl)-9-methyl-5,6,7,9-tetrahydro-8H-pyrido[2,3-b]azepin-8-one], the “human RIPK1 enzyme inhibitory effect at 10 μM (% inhibition)” value is reported as 69%.
Consider `CN1C(=O)C(N2CCc3c(nn(Cc4ccccc4)c3Cl)C2=O)CCc2cccnc21` (centres unmarked) [Example 94, 7-(2-benzyl-3-chloro-7-oxo-2,4,5,7-tetrahydro-6H-pyrazolo[3,4-c]pyridin-6-yl)-9-methyl-5,6,7,9-tetrahydro-8H-pyrido[2,3-b]azepin-8-one], for which the “human RIPK1 enzyme inhibitory effect at 10 μM (% inhibition)” value was 101%.
Regarding `CN1C(=O)C(N2CCc3c(nn(Cc4ccccc4)c3Cl)C2=O)CCc2ccncc21` (centres unmarked) [Example 95, 3-(2-benzyl-3-chloro-7-oxo-2,4,5,7-tetrahydro-6H-pyrazolo[3,4-c]pyridin-6-yl)-1-methyl-1,3,4,5-tetrahydro-2H-pyrido[3,4-b]azepin-2-one], the “human RIPK1 enzyme inhibitory effect at 10 μM (% inhibition)” value came out at 101%.
On to `CN1C(=O)C(N2CCc3c(nn(Cc4ccccc4F)c3Cl)C2=O)CCc2cnccc21` (centres unmarked) [Example 96, 3-(3-chloro-2-(2-fluorobenzyl)-7-oxo-2,4,5,7-tetrahydro-6H-pyrazolo[3,4-c]pyridin-6-yl)-1-methyl-1,3,4,5-tetrahydro-2H-pyrido[4,3-b]azepin-2-one], for which the “human RIPK1 enzyme inhibitory effect at 10 μM (% inhibition)” value is on record as 96%.
Consider `CN1C(=O)C(N2CCc3c(nn(Cc4ccccc4F)c3Cl)C2=O)CCc2ccncc21` (centres unmarked) [Example 97, 3-(3-chloro-2-(2-fluorobenzyl)-7-oxo-2,4,5,7-tetrahydro-6H-pyrazolo[3,4-c]pyridin-6-yl)-1-methyl-1,3,4,5-tetrahydro-2H-pyrido[3,4-b]azepin-2-one], for which the “human RIPK1 enzyme inhibitory effect at 10 μM (% inhibition)” value was determined as 98%.
Consider `CN1C(=O)C(N2CCc3c(nn(Cc4ccccc4)c3Cl)C2=O)CCc2cnccc21` (centres unmarked) [Example 98, 3-(2-benzyl-3-chloro-7-oxo-2,4,5,7-tetrahydro-6H-pyrazolo[3,4-c]pyridin-6-yl)-1-methyl-1,3,4,5-tetrahydro-2H-pyrido[4,3-b]azepin-2-one], for which the inhibition at 10 µM stood at 98%.
Consider `CN1C(=O)C(N2CCc3c(nn(Cc4ccccc4)c3Cl)C2=O)CCc2cnccc21` (centres unmarked) [Example 99, 3-(2-benzyl-3-chloro-7-oxo-2,4,5,7-tetrahydro-6H-pyrazolo[3,4-c]pyridin-6-yl)-1-methyl-1,3,4,5-tetrahydro-2H-pyrido[4,3-b]azepin-2-one], for which the “human RIPK1 enzyme inhibitory effect at 10 μM (% inhibition)” value was 98%.
Still for that read-out and setting: next, `CN1C(=O)C(N2CCc3c(nn(Cc4ccccc4)c3Cl)C2=O)CCc2cnccc21` (centres unmarked) [Example 100, 3-(2-benzyl-3-chloro-7-oxo-2,4,5,7-tetrahydro-6H-pyrazolo[3,4-c]pyridin-6-yl)-1-methyl-1,3,4,5-tetrahydro-2H-pyrido[4,3-b]azepin-2-one]: 91%.
Take `CN1C(=O)C(N2CCc3c(nn(Cc4ccccc4)c3Cl)C2=O)CCc2ccncc21` (centres unmarked) [Example 101, 3-(2-benzyl-3-chloro-7-oxo-2,4,5,7-tetrahydro-6H-pyrazolo[3,4-c]pyridin-6-yl)-1-methyl-1,3,4,5-tetrahydro-2H-pyrido[3,4-b]azepin-2-one]: the inhibition at 10 µM came to 97%.
Regarding `CN1C(=O)C(N2CCc3c(nn(Cc4ccccc4)c3Cl)C2=O)CCc2ccncc21` (centres unmarked) [Example 102, 3-(2-benzyl-3-chloro-7-oxo-2,4,5,7-tetrahydro-6H-pyrazolo[3,4-c]pyridin-6-yl)-1-methyl-1,3,4,5-tetrahydro-2H-pyrido[3,4-b]azepin-2-one], the “human RIPK1 enzyme inhibitory effect at 10 μM (% inhibition)” value is 88%.
For `CN1C(=O)C(N2CCc3c(nn(Cc4ccccc4F)c3Cl)C2=O)CCc2ccncc21` (centres unmarked) [Example 103, 3-(3-chloro-2-(2-fluorobenzyl)-7-oxo-2,4,5,7-tetrahydro-6H-pyrazolo[3,4-c]pyridin-6-yl)-1-methyl-1,3,4,5-tetrahydro-2H-pyrido[3,4-b]azepin-2-one], the inhibition at 10 µM came to 99%.
On to `CN1C(=O)C(N2CCc3c(nn(Cc4ccccc4F)c3Cl)C2=O)CCc2ccncc21` (centres unmarked) [Example 104, 3-(3-chloro-2-(2-fluorobenzyl)-7-oxo-2,4,5,7-tetrahydro-6H-pyrazolo[3,4-c]pyridin-6-yl)-1-methyl-1,3,4,5-tetrahydro-2H-pyrido[3,4-b]azepin-2-one], for which the “human RIPK1 enzyme inhibitory effect at 10 μM (% inhibition)” value is given as 95%.
